Legend:
[1] = molecular target: T1, PDH of W3110 ΔtyrR,tyrA/pSTVtyrA-1 strain (tyrA(mut), P100S/T260I) (Escherichia coli, UniProt P07023, P100S/T260I); assay: PDH activity in crude enzyme solution at L-tyrosine concentrations, pSTVtyrA-1 strain; assay type: biochemical; conditions: in the presence of 800 μM L-tyrosine
T1 construct: The resulting mutated fragment was then ligated to pSTV28; made in house; host or cells: Escherichia coli W3110 ΔtyrR,tyrA (endogenous tyrA disrupted), plasmid pSTV28; crude enzyme solution
Method: (§1) W3110 ΔtyrR,tyrA/pSTVtyrA-1, -2, -5, -10, and -24 strains were cultured at 37° C. for 15 hours in a LB medium, respectively and each culture solution was centrifuged to collect bacterial cells. Next, after the bacterial cells were washed twice with 50 mM Tris-HCl (pH 7.5) and suspended in 50 mM Tris-HCl (pH 7.5) containing 20% glycerol on ice, a crude enzyme solution was prepared by repeating 30 second-ultrasonication 80 times. Then, the PDH activity was measured according to the method described in Biochemistry. 1990 Nov. 6; 29(44): 10245-54. That is, the enzyme reaction was performed at 30° C. for 10 minutes in 50 mM Tris-HCl (pH 7.5) containing 0.25 mM prephenate, 1 mM EDTA, 1 mM DTT, and 2 mM NAD, and the generated NADH was measured at an absorption wavelength of 340 nm. A protein assay was carried out by the Bradford method. […] Hereinafter, this tyrA gene inserted into pSTVtyrA-1 is referred to as tyrA(mut).
The nucleotide sequence of the tyrA(mut) gene was determined according to a standard method. In this mutant, proline at position 100 and threonine at position 260 were replaced by serine and isoleucine, respectively. […] The obtained strains were cultured and L-tyrosine production was evaluated. […]

[2] = test system: PDH of strains carrying pSTVtyrA-2, -5, -10, and -24; assay: PDH activity in crude enzyme solution at L-tyrosine concentrations, pSTVtyrA-2, -5, -10, -24 strains; assay type: biochemical, Escherichia coli; conditions: in the presence of 100 μM L-tyrosine
Method: as §1

[3] = molecular target: T2, PDH containing the 254/269 mutations (mutant 6, A254G/E269Y) (Escherichia coli, UniProt P07023, A254G/E269Y); assay: PDH activity in crude enzyme solution at tyrosine concentrations, 254/269 mutant; assay type: biochemical; conditions: in the presence of 800 μM tyrosine; strain harboring PDH with 254/269 mutations
T2 construct: amplify a full length fragment of the tyrA gene which has mutations introduced; made in house; host or cells: Escherichia coli W3110 ΔtyrR,tyrA, plasmid pSTV28 (SmaI site); crude enzyme solution
Method: (§2) A strain containing mutant 7 (257/265), a strain containing mutant 6 (254/269), both shown in Table 3, and a strain containing the T260I mutation shown in Table 2 were cultured at 37° C. for 15 hours in LB medium, and after the culture, the resulting culture was centrifuged to collect bacterial cells. Then, after the bacterial cells were washed twice with 50 mM Tris-HCl (pH 7.5) and suspended in 50 mM Tris-HCl (pH 7.5) containing 20% glycerol on ice, a crude enzyme solution was prepared by repeating 30 second-ultrasonication 80 times. PDH activity was measured according to the method described in Biochemistry. 1990 Nov. 6; 29(44): 10245-54. That is, a reaction was carried out at 30° C. for 10 minutes in 50 mM Tris-HCl (pH 7.5) containing 0.25 mM prephenate, 1 mM EDTA, 1 mM DTT, and 2 mM NAD^+, and NADH was measured at an absorption wavelength of 340 nm. A protein assay was carried out by the Bradford method. […] However, the PDH activity of the strain harboring the PDH with the 257/265 mutation could not be measured even though the L-tyrosine yield was high.

[4] = molecular target: PDH (encoded by the tyrA gene) (Escherichia coli, UniProt P07023); conditions: Biochemistry. 1985 Feb. 26; 24(5): 1116; cited from earlier work
[5] = molecular target: T3, wild-type PDH (prephenate dehydrogenase) (Escherichia coli, UniProt P07023); assay: PDH activity in crude enzyme solution at L-tyrosine concentrations, wild-type PDH; assay type: biochemical; conditions: in the presence of 100 μM L-tyrosine; strain carrying wild-type PDH
T3 construct: made in house; host or cells: Escherichia coli (crude enzyme solution of sonicated cells)
From the text: Such mutant PDH can be obtained by introducing amino acid substitutions into wild-type PDHs and selecting a PDH which is not subject to feedback inhibition by L-tyrosine due to the amino acid substitution-introduced PDHs. Specifically, nucleotide substitutions causing amino acid substitutions are introduced into a DNA encoding PDH (e.g., SEQ ID NO: 1) by the use of, for example, site-directed mutagenesis using PCR or the like, and an Escherichia bacterium, preferably an Escherichia bacterium in which a wild-type PDH gene is disrupted is transformed with the mutated DNA. The PDH activity of the bacterium is then measured in the presence and absence of L-tyrosine, and a strain in which PDH is resistant to feedback inhibition by L-tyrosine is selected. PDH activity can be measured according to the method described in Biochemistry. 1990 Nov. 6; 29(44): 10245-54.
W3110 ΔtyrR,tyrA/pSTVtyrA-1, -2, -5, -10, and -24 strains were cultured at 37° C. for 15 hours in a LB medium, respectively and each culture solution was centrifuged to collect bacterial cells. […] Then, the PDH activity was measured according to the method described in Biochemistry. […] That is, the enzyme reaction was performed at 30° C. for 10 minutes in 50 mM Tris-HCl (pH 7.5) containing 0.25 mM prephenate, 1 mM EDTA, 1 mM DTT, and 2 mM NAD, and the generated NADH was measured at an absorption wavelength of 340 nm. […]

[6] = molecular target: T4, PDH containing the T260I mutation (Escherichia coli, UniProt P07023, T260I); assay: PDH activity in crude enzyme solution at tyrosine concentrations, T260I mutant; assay type: biochemical; conditions: in the presence of 800 μM tyrosine; strain harboring PDH with T260I
T4 construct: EcoRI-CpoI fragment containing no mutation excised from pSTVtyrA(W) was connected to the vector fragment of EcoRI-CpoI-digested pSTVtyrA(mut); made in house; host or cells: Escherichia coli W3110 ΔtyrR,tyrA, plasmid pSTVtyrA(T260I); crude enzyme solution
Method: as §2

T4 sequence (P07023 whole entry T260I, the tested form may be a part): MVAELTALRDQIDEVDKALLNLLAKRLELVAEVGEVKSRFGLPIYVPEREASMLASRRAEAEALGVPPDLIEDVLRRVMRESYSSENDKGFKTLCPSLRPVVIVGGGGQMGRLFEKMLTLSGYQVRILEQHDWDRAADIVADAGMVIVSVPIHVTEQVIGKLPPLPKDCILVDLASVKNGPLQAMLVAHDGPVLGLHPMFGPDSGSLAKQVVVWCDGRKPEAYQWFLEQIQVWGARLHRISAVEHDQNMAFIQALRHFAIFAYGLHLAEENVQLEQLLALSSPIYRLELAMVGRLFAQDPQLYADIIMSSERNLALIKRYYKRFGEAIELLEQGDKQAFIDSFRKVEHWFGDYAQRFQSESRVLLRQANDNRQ
T1 sequence (P07023 whole entry P100S/T260I, the tested form may be a part): as the sequence (P07023 whole entry T260I, the tested form may be a part) above, with P100S counted along it
T3 sequence (P07023 whole entry): as the sequence (P07023 whole entry T260I, the tested form may be a part) above, with I260T counted along it
Sequence of PDH (encoded by the tyrA gene) (P07023 whole entry): as the sequence (P07023 whole entry T260I, the tested form may be a part) above, with I260T counted along it
T2 sequence (P07023 whole entry A254G/E269Y, the tested form may be a part): as the sequence (P07023 whole entry T260I, the tested form may be a part) above, with A254G, I260T, E269Y counted along it

N[C@@H](Cc1ccc(O)cc1)C(=O)O [L-tyrosine]
inhibition of PDH activity [1]: almost no inhibition
inhibition of PDH activity [2]: strongly inhibited
inhibition of PDH activity [3]: almost no inhibition
concentration of L-tyrosine at which PDH is inhibited (as low as) [4]: 300 µM
inhibition of PDH activity [5]: strongly inhibited
inhibition of PDH activity [6]: almost no inhibition
